One series concerns adult cat fleas C. felis. Put plainly: Flea ovicidal activity in vitro: artificial feeding system with blood drawn from treated dogs (Example 3). The note with it: fed to fleas. From the text: For the in vitro tests, an artificial feeding system with cages for adult cat fleas C. felis was used as described by Wade, S.E., et al., J. Med. Ent. 25(3): 186-190 (May 1988). Inside each cage were placed 100 one-week-old, unfed adult C. fells. Each cage included a container for treated blood separated from the fleas by a PARAFILM® membrane, and a compartment containing thin strips of paper to support loosely arranged clean dog hair and to provide a foothold for the fleas as they fed on the blood through the membrane.
Fifteen healthy male beagle dogs, one year of age, with weights ranging from 10.29 kg to 13.87 kg, were divided into three groups of five dogs each. One group was fed an initial bolus of 50 mg/kg of (S)-methoprene, followed by daily feeding a standard maintenance diet containing 0.02% (S)-methoprene. The second group was fed an initial bolus of 25 mg/kg of (S)-methoprene, followed by daily feeding a standard maintenance diet containing 0.01% (S)-methoprene. The third group received the same diet but with no (S)-methoprene, thereby serving as a control. The daily feeding of 0.02% (S)-methoprene in the first group amounted to approximately 3.6 mg/kg, while the daily feeding of 0.01% (S)-methoprene in the second group amounted to approximately 1.8 mg/kg. The (S)-methoprene was administered in a gelatin capsule, the control involved administration of a gelatin capsule containing vegetable oil instead of (S)-methoprene, and the standard diet was a Science Diet Canine Maintenance. The daily feeding of the (S)-methoprene continued for six weeks following the initial bolus.
Seven days after the initial bolus and weekly thereafter for five more weeks except week 4, 50 mL of blood was collected from each dog into a syringe preloaded with 3 mL of a 20% (by weight) aqueous sodium citrate solution. The five 50-mL samples from each treatment group were pooled at each bleeding. Aliquots of 10 mL each from each pool were placed in separate feeding chambers of the artificial flea feeding cages.
Flea eggs were collected from each cage at appropriate intervals. One hundred (100) healthy appearing […] were counted under a dissecting microscope from each cage, divided into two subsamples, and placed in 60 mm x 15 mm plastic petri dishes. The samples were incubated at 78°F and 85% relative humidity for three days, then scored for larval hatch by visual observation through the dissecting microscope. The data from all replicates in each treatment group were combined to yield the mean percent egg hatch, and the percent inhibition of egg hatch was calculated relative to the control.

Series [1] can be described thus: Methoprene blood concentrations in dogs following a single oral dose (gas chromatography). The settings on record: single oral dose 50 mg/kg. It counts as in vivo. As to the method:
Six healthy mixed breed dogs, three male and three female, of weight ranging from 14 to 22 kg per dog and ages ranging from 2 to 5 years, were utilized. For each dog, a gelatin capsule containing a measured volume of (S)-methoprene was prepared, based on the dog's weight to yield a dose of 50 mg/kg of the dog's body weight in a single gelatin capsule for each dog. The dogs were fasted 24 hours before administration of their individual capsules, and dosing was achieved by placing the capsule in the back of each dog's throat and causing the dog to swallow. Food was then withheld for an additional 8 hours, although water was always available, and the dogs were fed once the following morning.
At each sampling time, 50 mL of blood was collected from the femoral vein of each dog into two 25-mL syringes. Samples were taken seven days prior to dosing (to establish a baseline), followed by three hours, 1 day, 2 days, 4 days, and 7 days after dosing.
To prepare the blood samples for methoprene content determinations, each 25-mL blood sample was mixed with 200 mL acetonitrile, 25 g anhydrous Na2SO4, and 10 g CELITE® in a blender for three one-minute segments, allowing the blender blades to cool for thirty seconds between segments. The mixture was then vacuum filtered, including a wash with 50 mL acetonitrile. The filtrate was extracted with petroleum ether for one minute, then diluted with 700 mL deionized water. To this was added 50 g NaCI and the solution was acidified to pH 2 with 0.5 N HCl. The aqueous phase was then discarded, and the petroleum ether phase was washed twice with 600 mL of deionized water. The petroleum ether was then filtered through a glass wool plug topped with 50 g Na2SO4. The Na2SO4 was then rinsed with 15 mL petroleum ether, and the extractant concentrated to 10 mL in a rotary evaporator, using a bath temperature of 30°C. The concentrated extractant was then stored in a refrigerator until the next step in the analysis.
Extraction columns were prepared by heat activating FLORISIL® (magnesium silicate absorbent) at 200°C for 24 hours, then allowing the FLORISIL to cool for 45 minutes, adding 5 mL of distilled water per 50 g of FLORISIL, shaking the mixture, and allowing it to equilibrate for 3 hours. A glass column with 28 mm intemal diameter was plugged with glass wool and filled with petroleum ether. A 1-cm layer of Na2SO4 was slowly poured into the column, followed by 6.5 cm of FLORISIL and 1.5 cm of Na2SO4. The petroleum ether was then drained until it reached the layer of Na2SO4. The extractant from the preceding paragraph was then loaded into the top of the column with a glass pipette, and its content rinsed with petroleum ether and added to the column. The column was then drained until the solvent layer was above the Na2SO4, and the eluant was discarded. Elution was then performed with 1 L of 5% diethyl ether/petroleum ether for each sample, and fractions of 175 mL and 825 mL were collected. The 825 mL fraction was then evaporated to 5 mL and stored in a refrigerator.
To prepare the 825 mL fraction for gas chromatography, one mL of internal standard was added to the sample, and the sample volume was evaporated to approximately 0.3 mL with nitrogen. Two aliquots of 5 µL each were injected on a gas chromatograph (Perkin Elmer, Sigma 300, with hydrogen flame ionization detector and data system) equipped with a 6-foot-by 1/4-inch glass column with 3% OV-101 Chrom W HP 100/120 mesh packing, using nitrogen at 60 mUmin as the carrier gas, and injector, column and detector temperatures of 300°C, 166°C, and 280°C, respectively.

SMILES strings stand for the structures.

Consider one compound from patent EP0923292B1, “IMPROVED METHOD FOR SYSTEMIC ADMINISTRATION OF 2,4-DIENOIC ACID-TYPE INSECTICIDES TO TERRESTRIAL MAMMALS” (priority 1996, dated 1998).

Regarding `COC(C)(C)CCC[C@H](C)C/C=C/C(C)=C/C(=O)OC(C)C` [(S)-Methoprene, 1-isopropyl (E,E)-11-methoxy-3,7,11-trimethyl dodecadi-2,4-enoate], the “Percent Inhibition of Flea Egg Hatching” value in the series on adult cat fleas C. felis (pooled blood of dogs given initial bolus 25 mg/kg then daily diet 0.01% (S)-methoprene, week 1) came to 6%; with adult cat fleas C. felis (pooled blood of dogs given initial bolus 25 mg/kg then daily diet 0.01% (S)-methoprene, week 3) it was 38%; with adult cat fleas C. felis (pooled blood of dogs given initial bolus 25 mg/kg then daily diet 0.01% (S)-methoprene, week 5), 24%; with adult cat fleas C. felis (pooled blood of dogs given initial bolus 25 mg/kg then daily diet 0.01% (S)-methoprene, week 6), 19%; in the series on adult cat fleas C. felis (pooled blood of dogs given initial bolus 50 mg/kg then daily diet 0.02% (S)-methoprene, week 1) it was 33%; with adult cat fleas C. felis (pooled blood of dogs given initial bolus 50 mg/kg then daily diet 0.02% (S)-methoprene, week 3) it was 48%. Further, the “Percent Inhibition of Flea Egg Hatching” value in the series on adult cat fleas C. felis (pooled blood of dogs given initial bolus 50 mg/kg then daily diet 0.02% (S)-methoprene, week 5) is on record as 38%; in the series with adult cat fleas C. felis (pooled blood of dogs given initial bolus 50 mg/kg then daily diet 0.02% (S)-methoprene, week 6), 22%. Also, the concentration at 0 h in series [1] (both sexes, mixed breed, dog, in vivo, mean of six dogs, 0 hours (baseline, seven days prior to dosing)) was determined as 0 ng/mL. The same compound had a concentration at 3 h in series [1] (both sexes, mixed breed, dog, in vivo, mean of six dogs, 3 hours) of 547 ng/mL. The compound further gave a concentration at 24 h in series [1] (both sexes, mixed breed, dog, in vivo, mean of six dogs, 24 hours) of 85 ng/mL. The same compound had a concentration at 48 h in series [1] (both sexes, mixed breed, dog, in vivo, mean of six dogs, 48 hours) of 104 ng/mL. Moreover, the “time by which methoprene level fell below detectable amounts” value in series [1] (remaining four of the six dogs) is ≤ 96 h; in series [1] (two of the six dogs) it was ≤ 48 h. Moreover, in series [1], the “time (S)-methoprene remains in the dogs' blood” value fell in the range of 48 to 96 h.
